In patent publication US20120289574A1, “HYDRATE CRYSTALS” (AJINOMOTO CO., INC., priority 2008, published 2012):
Where two headings read alike, the source gives them in different places.

Legend:
[1] = for Comparison of decomposition rates ((b)/(a)), decomposition product X (lactone) / Comparison of decomposition rates ((b)/(a)), decomposition product Y (lactam): Comp. Ex. 1 (b) relative to Example 4 (a), 120° C.; for Rate of decomposition over time into the decomposition product X (lactone) / Rate of decomposition over time into the decomposition product Y (lactam): storage 120° C., open vial, HPLC area ratio relative to monatin
Protocol: A 50 mg quantity of the crystals of Example 4 and an identical quantity of the crystals of Comparative Example 1 were placed in separate 4 mL vials and stored at a temperature of 120° C. During this storage, the vials were left open. Following storage periods of 3 hours, 7 hours, and 24 hours, 2 mg of sample was removed and the rate of decomposition of the samples was determined by HPLC. Specifically, decomposition product X was a lactone compound (RT=21 minutes) and decomposition product Y was a lactam compound (RT=26 minutes). The individual area ratios (percentages) were calculated relative to the area of monatin.

[2] = Sweetness intensity by panelists relative to 5 percent sucrose aqueous solution; type: in vivo; settings: average of values provided by seven panelists relative to 5 percent sucrose aqueous solution
Excerpt: Sweetness intensity: 2,700-fold (average of values provided by seven panelists relative to 5 percent sucrose aqueous solution)

[3] = Water vapor adsorption/desorption test; type: physicochemical; settings: water vapor adsorption/desorption curve, adsorption temperature 298 K
Excerpt: A water vapor adsorption/desorption curve was plotted for the (2R,4R) monatin monosodium salt hydrate crystals (A) obtained in Example 1. The measurement conditions were as follows. The measured values are given in FIG. 5. • Device: Automatic vapor adsorption measuring device BELSORP18 made by Bel Japan Inc. • Measurement method: Volumetric gas adsorption method
• Adsorbed gas: H2O • Air thermostat temperature (K): 353 • Adsorption temperature (K): 298 • Saturation vapor pressure (kPa): 3.169 • Adsorption cross-sectional area (nm^2): 0.125 • Maximum adsorption pressure (relative pressure P/PO): desorption: 0.90; adsorption: 0.95 • Minimum adsorption pressure (relative pressure P/PO): desorption: 0.10; adsorption: 0.05 • Equilibration period: 500 s

[4] = 24 hr, listed as Comparative Example 1

Row | Compound | Comparison of decomposition rates ((b)/(a)), decomposition product X (lactone) ([1]; 3 hr) | Comparison of decomposition rates ((b)/(a)), decomposition product Y (lactam) ([1]; 3 hr) | Comparison of decomposition rates ((b)/(a)), decomposition product X (lactone) ([1]; 7 hr) | Comparison of decomposition rates ((b)/(a)), decomposition product Y (lactam) ([1]; 7 hr) | Comparison of decomposition rates ((b)/(a)), decomposition product X (lactone) ([1]; 24 hr) | Comparison of decomposition rates ((b)/(a)), decomposition product Y (lactam) ([1]; 24 hr) | Comparison of decomposition rates ((b)/(a)), decomposition product X (lactone) [1, 4] [fold] | Comparison of decomposition rates ((b)/(a)), decomposition product Y (lactam) [1, 4] [fold] | Rate of decomposition over time into the decomposition product X (lactone) ([1]; 0 hr) [%] | Rate of decomposition over time into the decomposition product Y (lactam) ([1]; 0 hr) [%] | Rate of decomposition over time into the decomposition product X (lactone) ([1]; 3 hr) [%] | Rate of decomposition over time into the decomposition product Y (lactam) ([1]; 3 hr) [%] | Rate of decomposition over time into the decomposition product X (lactone) ([1]; 7 hr) [%] | Rate of decomposition over time into the decomposition product Y (lactam) ([1]; 7 hr) [%] | Rate of decomposition over time into the decomposition product X (lactone) ([1]; 24 hr) [%] | Rate of decomposition over time into the decomposition product Y (lactam) ([1]; 24 hr) [%] | Sweetness intensity [2] | Most stable hydrate [3]
1 | (2R,4R) monatin monosodium salt 0.2 ethanolate [Comp. Ex. 1] | 30-fold | 19-fold | 21-fold | 17-fold | 27-fold | 20-fold | 27 | 20 | 0 | 0 | 3.38 | 2.08 | 4.64 | 3.63 | 6.67 | 7.46 |  | 
2 | N[C@H](C[C@](O)(Cc1c[nH]c2ccccc12)C(=O)O)C(=O)[O-].O.[Na+] [Example 4, (2R,4R) Monatin Monosodium Salt Monohydrate Crystals (B)] |  |  |  |  |  |  |  |  | 0 | 0 | 0.11 | 0.11 | 0.23 | 0.21 | 0.24 | 0.38 | 2,700 fold | 
3 | NC(CC(O)(Cc1c[nH]c2ccccc12)C(=O)O)C(=O)[O-].[Na+] [Example 1, (2R,4R) Monatin Monosodium Salt Hydrate Crystals (A)] |  |  |  |  |  |  |  |  |  |  |  |  |  |  |  |  |  | trihydrate
